Data set [1] concerns S. aureus. Kind of data set: Potentiation of lysostaphin bactericidal activity (minimum bactericidal concentration assay, survival of S. aureus). Type of data set: cell-based, Staphylococcus aureus. The conditions noted are these: 18 h. As for the experimental part:
Preparation of 50% glycerol and 15% poloxamer 407 NF plus lysostaphin is as follows: The lysostaphin stock of 2.5 mg/mL is thawed and filtered through a 0.22μ filter. [formula]
In a similar fashion, triacetin solutions are also prepared.
Mueller-Hinton Broth containing lysostaphin is prepared as above. Penicillin in Mueller-Hinton Broth is prepared to serve as a control. Starting with a frozen 2.5 mg/mL stock solution the penicillin is diluted as follows: 400 μl of 2.5 mg/mL is placed in 600 μl of Mueller-Hinton Broth to yield a 1000 μg/mL solution. Added to 3744 μl of Mueller-Hinton Broth is 256 μl of the 1000 μg/mL solution to yield a 64 μg/mL solution.
Placed in sterile tubes are 2 mL of the vehicle and lysostaphin; Mueller-Hinton Broth plus lysostaphin; and Mueller-Hinton Broth plus penicillin. Serial two-fold dilutions are performed by hand using 1 mL of the appropriate vehicle as the diluent. Lysostaphin and penicillin dilutions range from 64 μg/mL to 0.25 μg/mL. All combinations are done in duplicate. The Staphylococcus aureus is grown for 5 hours in 5 mL of TSB and 0.1 mL is removed and placed in 9.9 mL of saline. Each tube is inoculated with 100 μl of the diluted culture. Plate counts are performed on the inoculum. All tubes are incubated for 18 hours at 37° C. with constant agitation. Following incubation, each dilution of lysostaphin in the vehicles or Mueller-Hinton Broth and penicillin in Mueller-Hinton Broth is diluted in phosphate buffered saline to 10^-2, 10^-4 and 10^-6.
Plated on a TSA with 10% sheep blood is 100 μl of the undilute and of each dilution. The plates are inverted and incubated for 18 hours. Following incubation, the number of colonies on each plate is counted.
The vehicles which inhibit the growth or are moderately bactericidal to S. aureus by themselves are unable to be evaluated using the MIC procedure. For these vehicles a minimum bactericidal concentration assay (MBC) is performed. This assay in conjunction with the previous MIC data distinguish bacteriostatic effects versus bactericidal effects of the vehicles. Various formulations are mixed with lysostaphin at a final concentration of 32 μg/mL. Ten, serial two- or four-fold dilutions of the lysostaphin are performed in the vehicle and each tube inoculated with a 2-6 x's 106 S. aureus CFU's (bacterial colony-forming units). Samples are removed after 18 hours and plated on blood agar plates.

Data set [2] has as its system S. aureus. Kind of data set: Potentiation of bacteriostatic activity of lysostaphin by vehicles (checkered analysis). It counts as cell-based, Staphylococcus aureus. To be noted: for Character of potentiation: in words (footnotes, text); for Vehicle Conc. w/Max. Potentiation (%): with r-lysostaphin; for Potentiation Index Compared to Lysostaphin: M.I.C. of r-lysostaphin in saline / M.I.C. in formulation with the vehicle. The text has this:
In order to identify the nontoxic formulations for mammalian use, toxicity is employed as a method to eliminate direct bactericidal effects on the S. aureus, as well as potential toxic effects on the target animal. Compounds are formulated with r-lysostaphin at concentrations below toxic effects and compared to the bacteriostatic activity of r-lysostaphin in a saline formulation. Some compounds potentiate r-lysostaphin bacteriostatic activity by as much as 300-1000 fold.
Several surfactants, detergents, oils, emollients and membrane solubilizers are chosen as representative of various classes of compounds which may affect protein activity. These vehicles are then evaluated for toxicity and potentiation of the bacteriostatic effects of r-lysostaphin on S. aureus according to the methods described in the foregoing examples. […] Secondly, the vehicles are subjected to the toxicity test on murine cells in vitro. Viable cells are evaluated by trypan blue exclusion and normalized to an untreated control. Thereafter, dairy cattle are infused through the teat canal with various concentrations of the vehicle to make a determination of the irritation potential after intramammary infusion as a measure of mammalian toxicity. Milk samples are collected after infusion of said vehicles and the somatic cell count is determined. The Stimulation Index equals the post-infusion SCC divided by the pre-infusion SCC. The vehicles showing minimal toxicity to S. aureus and mammalian cells in vitro and in vivo are subsequent candidates for evaluation in the in vivo potentiation trials.
Various vehicle combinations are tested in a standard checkered analysis which simultaneously varies the concentration of both parameters to examine the individual contribution of each. Vehicles are all compared to r-lysostaphin in a saline solution, i.e., the potentiation index. […] Glycerol and triacetin, while only potentiating the activity of r-lysostaphin 6-8 fold, is manifested by bactericidal effects (see above Table IV).

Data set [3] has as its system Staphylococcus aureus mastitis (Newbould 305). Kind of data set: Efficacy of lysostaphin formulated in vehicles as intramammary infusion against Staphylococcus aureus mastitis. It counts as in vivo, bovine (dairy cows). From the text:
This experiment examines the ability of various lysostaphin formulations to eliminate S. aureus infections in the bovine mammary gland and compares the formulations with the testing of lysostaphin in a peanut oil-gel matrix, similar to that used in the commercial product CEFA-LAK®, which is used to treat mastitis in lactating dairy cows.
Lysostaphin is formulated in three vehicles: 15% w/v poloxamer 407 NF, 50% w/v glycerol or 10% w/v triacetin. Lysostaphin is also formulated in a peanut oil-gel matrix. These formulations are infused into the bovine mammary gland and the ability of these combinations to exact a biological response, either by curing the infection or by clearing the mammary gland temporarily of S. aureus, are assessed.
Recombinant lysostaphin is suspended in 10.0 mL of peanut oil vehicle or dissolved in 60.0 mL of appropriate sterile vehicle (sPBS) at a concentration of 10.0 mg/mL or 1.67 mg/mL, respectively. Each of 15% poloxamer 407 NF (PLURONIC® ACID F127, a polyoxyethylene-polyoxypropylene derivative, BASF Corporation, Parsippany, N.J.); 50% glycerol (Sigma Chemical Co., St. Louis, Mo.); and 10% triacetin (glyceryl triacetate, Sigma Chemical Co., St. Louis, Mo.) are prepared in sterile phosphate buffered saline.
Staphylococcus aureus infections of the mammary gland provide an excellent model system for evaluating therapeutic efficacy of a variety of pharmaceutical and biological agents for many infectious diseases of mammals. Therefore, experimental infections are established with S. aureus (strain Newbould 305). All mammary glands to be inoculated are free of pathogens and have individual quarter somatic cell counts (SCC) less than 200,000 cells/mL of milk. Inoculum is prepared from a four-hour culture grown in trypticase soy broth and diluted. Inoculations are made by infusion of 1.0 mL diluted culture containing 90 colony forming units of S. aureus (Newbould 305) into the teat cistern of a milked-out mammary quarter. Quarters which fail to establish an infection after six days from initial inoculation are reinfected.
Prepared in PBS is 50% glycerol and the solution is then sterile filtered (0.45μ). Poloxamer 407 NF is mixed overnight and prepared similarly. A 10% triacetin solution is prepared aseptically in sterile PBS. Appropriate amounts of lysostaphin is added so the final concentration is 1.67 mg/mL. All preparations are in a total volume of 60.0 mL and made the day of the infusion. All solutions are sterile filtered through a 0.45μ filter.
Duration of treatment: 3 consecutive PM milkings
Quarters are randomly assigned to one of six treatment groups. All quarters are infused with the appropriate vehicle (60.0 mL) with or without lysostaphin over three consecutive PM milkings. […]

Data set [4] deals with S. aureus mastitis (Newbould 305). Kind of data set: r-BoIL-2 formulated in poloxamer 407 NF as a therapeutic for S. aureus mastitis (Example 6). Type of data set: in vivo, Holstein-Fresian dairy cattle. On the procedure:
This experiment compares r-BoIL-2 formulated in poloxamer 407 NF, against CEFA-LAK® (cephapirin in a commercial formulation), Na cephapirin (in PBS) and r-BoIL-2 in combination with Na cephapirin (in PBS) as potential therapeutics for S. aureus mastitis. The study employs the following materials: recombinant bovine interleukin-2 (r-BOIL-2, Immunex Corporation, Seattle, Wash.); CEFA-LAK® (200 mg cephapirin as cephapirin sodium in a commercially packaged dose, Bristol-Meyers, Evansville, Ind.); 200 mg Na cephapirin dissolved in 10.0 mL sterile saline; PLURONIC® ACID F127 (poloxamer 407 NF, BASF Corporation, Parsippany, N.J.).
The treatment of Holstein-Fresian dairy cattle is run over three days. There are four treatment groups as follows:
Treatment 1=2 infusions consisting of 200 mg cephapirin (as CEFA-LAK®),at 0 and 12 hours.
Treatment 2=3 infusions consisting of 10 mg r-BoIL-2/poloxamer 407 NF at 0, 24 and 48 hours.
Treatment 3=3 infusions consisting of 3.3 mg r-BoIL-2 in 10 mL PBS at 0, 24 and 48 hours, followed by 2 infusions of 200 mg Na cephapirin in 10 mL PBS at 0 and 12 hours.
Treatment 4=2 infusions consisting of 200 mg Na cephapirin in 10 mL PBS at 0 and 12 hours.
All mammary glands to be infused have been infected with S. aureus (Newbould 305). Infusions are made into the teat cistern of a milked out mammary gland after the prescribed milking. […]

A short description of data set [5]: Toxicosis following r-BoIL-2 and r-BoIL-1 formulated infusions. To be noted: in words. It counts as in vivo, dairy cattle. The text has this:
Daily observations of dairy cattle are made for any signs of toxicosis following the beginning of treatment.

The mark [6] stands for this setting: lysostaphin (or penicillin) 1 μg/mL.
The mark [7] stands for this setting: lysostaphin (or penicillin) 4 μg/mL.

For the molecule `CC1(C)S[C@@H]2[C@H](NC(=O)Cc3ccccc3)C(=O)N2[C@H]1C(=O)O` [Penicillin, reference compound], the “Survival of S. aureus CFU (Log 10) in Vehicles” value in data set [1] (lysostaphin (or penicillin) 0.5 μg/mL) was 4.2 CFU (Log 10); in data set [1] (setting [6]), 2.5 CFU (Log 10); in data set [1] (setting [7]) it was 3.1 CFU (Log 10); in data set [1] (lysostaphin (or penicillin) 8 μg/mL), 0 CFU (Log 10). For the same molecule, the “Killing of S. aureus (footnote class)” value in data set [1] (setting [6]), in data set [1] (setting [7]) and in data set [1] (penicillin 0.5 μg/mL) was “^3 (Greater than 99.99% killing of S. aureus)” throughout.
For the molecule `OCC(O)CO` [Glycerol], in data set [2], the Character of potentiation entry is “Potentiates the bactericidal activity of rlysostaphin” and the “Vehicle Conc. w/Max. Potentiation (%)” value was determined as 50.0%. Also, the “% Cures” value in data set [3] (100 mg lysostaphin infusions on three consecutive days) came out at 25%. Besides, the “Effect on potentiating the in vivo efficacy of lysostaphin” value in data set [3] (in words) was “Neither glycerol nor triacetin (both have a cure rate of 25%) has any significant effect”.
Turning to `CCCCCCCC(=O)N(C)C[C@H](O)[C@@H](O)[C@H](O)[C@H](O)CO` [Octanoyl-n-methylglucamid], the “Vehicle Conc. w/Max. Potentiation (%)” value in data set [2] stood at 0.31%.
Turning to `CCCCCCCCOC1O[C@H](CO)[C@@H](O)[C@H](O)[C@H]1O` (stereo partly drawn) [n-Octylglucosid], in data set [2], the “Potentiation Index Compared to Lysostaphin” value is listed as 1.0 and the “Vehicle Conc. w/Max. Potentiation (%)” value is 0.039%.
As for `CCCCCCCCCC(=O)N(C)C[C@H](O)[C@@H](O)[C@H](O)[C@H](O)CO` [Decanoyl-n-methylglucamid], the “Vehicle Conc. w/Max. Potentiation (%)” value in data set [2] turned out to be 0.078%.
`CC(=O)OCC1=C(C(=O)O)N2C(=O)[C@@H](NC(=O)CSc3ccncc3)[C@H]2SC1` [Cephapirin]: in data set [4] (CEFA-LAK 200 mg x2, r-BoIL-2/F127 10 mg x3, r-BoIL-2 3.3 mg x3 + cephapirin 200 mg x2, cephapirin 200 mg x2, quarters culture negative at first sampling), the “Response (%)” value came out at 85%. In addition, the “Cure (%)” value in data set [4] (same doses, days eight to fifteen following final treatment) was 23.1%.
Consider `CCCCCCCCCCCCO[C@@H]1O[C@H](CO)[C@@H](O[C@H]2O[C@H](CO)[C@@H](O)[C@H](O)[C@H]2O)[C@H](O)[C@H]1O` [Dodecyl B-D-maltosid], for which the “Vehicle Conc. w/Max. Potentiation (%)” value in data set [2] was 0.0024%.
Still for that read-out and setting: the same measure for `CC(O)CO` (stereo not drawn) [Propylene Glycol]: 0.195%.
As to `CCCCCCCCCCCCOC1O[C@H](CO)[C@@H](O)[C@H](O)[C@H]1O` (stereo partly drawn) [n-Dodecylglucosid], in data set [2], the “Potentiation Index Compared to Lysostaphin” value was 1025.0, the Character of potentiation result is given as “Potentiation is eliminated when diluted fourfold” and the “Vehicle Conc. w/Max. Potentiation (%)” value was found to be 0.078%.

B1: r-BoIL-2: recombinant bovine interleukin-2, Immunex Corporation, Seattle, Wash. (protein, UniProt P05016 21-155, looked up)
Interleukin-2: APTSSSTGNTMKEVKSLLLDLQLLLEKVKNPENLKLSRMHTFDFYVPKVNATELKHLKCLLEELKLLEEVLNLAPSKNLNPREIKDSMDNIKRIVLELQGSETRFTCEYDDATVNAVEFLNKWITFCQSIYSTMT
B1: the “Observable signs of toxicosis / adverse clinical signs” value in data set [5] (compared with PBS carrier) was “A decrease of adverse clinical signs are observed”. Besides, the “Side effects compared with r-BoIL-2 in PBS” value in data set [5] (in polyoxypropylene-polyoxyethylene block copolymer) is given as “substantially less detrimental to an animal than infusions of r-BoIL-2 in sterile phosphate buffered saline”.
